Results reported in patent publication US8128963B2, “Methods for treating ischemic disorders using carbon monoxide” (The Trustees of Columbia University in the City Of New York, priority 1999, dated 2012).
“Also recorded” adds a separate entry of the source.

Key:
[1] = system: intracerebral hemorrhage; format: in vivo, mouse
Protocol: The hemoglobin content of brains subjected to the experimental procedures below was quantified using a spectrophotometric assay as follows. Whole brain tissue was obtained from freshly euthanized control or experimental animals, and each brain was treated individually as follows. Distilled water (250 μl) was added to each brain, followed by homogenization, for 30 sec (Brinkman Instruments, Inc., Westbury, N.Y.), sonification on ice with a pulse ultrasonicator for 1 minute (SmithKline Corporation, Collegeville, Pa.), and centrifugation at 13,000 rpm for 30 minutes (Baxter Scientific Products, Deerfield, Ill.). After collecting the hemoglobin-containing supernatant, 80 μl of Drabkin's reagent (purchased from Sigma Diagnostics, St. Louis, Mo; K3Fe(CN)6 200 mg/L, KCN 50 mg/L, NaHCO3 1 g/L, pH 8.6 ^25) was added to a 20 μl aliquot and allowed to stand for 15 minutes. This reaction converts hemoglobin to cyanomethemoglobin, which has an absorbance peak at 540 nm, and whose concentration can then be assesses by the optical density of the solution at ≈550 nm wavelength ^26. To validate that the measured absorbance following these procedures reflects the amount of hemoglobin, known quantities of bovine erythrocyte hemoglobin (Sigma, St. Louis, Mo.) were analyzed using similar procedures alongside every brain tissue assay. As an additional measure, blood was obtained from control mice by cardiac puncture following anesthesia. Incremental aliquots of this blood were then added to freshly homogenized brain tissue obtained from untreated mice to generate a standard absorbance curve.
Focal cerebral ischemia was produced in animals by transient right middle cerebral artery occlusion using a method previously described in detail ^28,29. Briefly, a heat-blunted 12 or 13 mm 5-0 or 6-0 gauge nylon suture was passed into the right internal carotid artery to the level of the middle cerebral artery. After 45 minutes, the occluding suture was removed to reestablish perfusion. Immediately following removal of the occluding suture, animals received either intravenous tissue plasminogen activator (10 mg/kg in 0.2 ml normal saline solution, Stroke+rt-PA) or normal saline solution (Stroke+Saline) given by dorsal penile vein injection. At 24 hours, brain tissue was harvested immediately after rapid anesthetized decapitation. […] The other half of each brain was immersed in saline for an identical duration, and then subjected to the procedures described above for the spectrophotometric hemoglobin assay.
The degree of ICH was first scored visually by a blinded observer. […] Sections were inspected by a blinded observer and brains were given an ICH score from a graded scale based on maximal hemorrhage diameter seen on any of the sections [ICH score 0, no hemorrhage; 1, <1 mm; 2, 1-2 mm; 3, >2-3 mm; 4, >3 mm]. Slices from each brain were then pooled, homogenized, and then treated according to the procedures described above for the spectrophotometric hemoglobin assay.
Spectrophotometric hemoglobin assay and visual ICH score: ICH was quantified by a spectrophotometric-based assay which we have developed and validated ^11,12. In brief, mouse brains were homogenized, sonicated, centrifuged, and methemoglobin in the supernatants converted (using Drabkin's reagent) to cyanomethemoglobin, the concentration of which was assessed by measuring O.D. at 550 nm against a standard curve generated with known amounts of hemoglobin. […]

[2] = system: mouse model of stroke; assay: Mouse model of stroke, thrombolytic versus P-selectin antagonist; settings: in vivo
From the text: The present invention provides for treatment of ischemic disorders by inhibiting the ability of the neutrophil, monocyte or other white blood cell to adhere properly. This may be accomplished removing the counter ligand, such as CD18. […] The endothelial cells on the surface of the vessels in the subject may also be a target for treatment. […] The present invention may be used in conjunction with a thrombolytic therapy to increase efficacy of such therapy or to enable lower doses of such therapy to be administered to the subject so as to reduce side effects of the thrombolytic therapy.

[3] = system: acute ischemic stroke; settings: within 7 hours of stroke onset; cited from earlier work
[4] = system: stroke; settings: within 2 hours of stroke; cited from earlier work
[5] = system: mouse model of cerebral ischemia and reperfusion (stroke); format: in vivo
Protocol: In stroke and other ischemic disorders, there may be clinical benefit derived by lysing an existing thrombus, but there is also the potentially devastating complication of hemorrhage. In the current experiments, the mouse model of cerebral ischemia and reperfusion (stroke) was used. […]
Murine stroke model. Transient focal cerebral ischemia was induced in mice by intralumenal occlusion of the middle cerebral artery (45 minutes) and reperfusion (22 hrs) as previously reported ^7. Serial measurements of relative cerebral blood flow (CBF) were recorded via laser doppler flowmetry ^7, and infarct volumes (% ipsilateral hemisphere) determined by planimetric/volumetric analysis of triphenyl tetrazolium chloride (TTC)-stained serial cerebral sections ^7.
Preparation of Factor IXai ^13: Factor IXai was prepared by selectively modifying the active site histidine residue on Factor IXa, using dansyl-glu-gly-arg-chloromethylketone. Proplex was applied to a preparative column containing immobilized calcium-dependent monoclonal antibody to Factor IX. […] Purified Factor IXa was reacted with a 100-fold molar excess of dansyl-glu-gly-arg chloromethylketone, and the mixture dialyzed. […] IXai was subsequently frozen into aliquots at −80° C. until the time of use. For those experiments in which IXai was used, it was given as a single intravenous bolus at the indicated times and at the indicated doses.

[6] = system: platelet accumulation in ipsilateral hemisphere; assay: 111Indium-platelet accumulation in stroke; format: in vivo, mouse; settings: 300 μg/kg prior to occlusion, vs vehicle
Protocol: ^111Indium-platelet studies: Platelet accumulation was determined using ^111Indium labeled platlets, collected and prepared as previously described ^8. Immediately prior to surgery, mice were given 5×10^6 111In-labeled-platelets intravenously; deposition was quantified after 24 hours by as ipsilateral cpm/contralateral cpm.

[7] = system: cross-linked fibrin; assay: Fibrin immunoblotting in stroke brain; format: in vivo, mouse; settings: 300 μg/kg prior to stroke
Protocol: Fibrin immunoblotting/immunostaining. The accumulation of fibrin was measured following sacrifice (of fully heparinized animals) using immunoblotting/immunostaining procedures which have been recently described and validated ^9. Because fibrin is extremely insoluble, brain tissue extracts where prepared by plasmin digestion, then applied to a standard SDS-polyacrylamide gel for electrophoresis, followed by immunoblotting using a polyclonal rabbit anti-human antibody prepared to gamma-gamma chain dimers present in cross-linked fibrin which can detect murine fibrin, with relatively little cross-reactivity with fibrinogen ^10. Fibrin accumulation was reported as an ipsilateral to contralateral ratic. In additional experiments, brains were embedded in paraffin, sectioned, and immunostained using the same anti-fibrin antibody.

[8] = Protime and APTT in mice; format: in vivo, mouse; settings: 300 μg/kg, n=7
From the text: The potency of Factor IXai as an anticoagulant agent stems from the integral role of activated Factor IX in the coagulation cascade.

[9] = target: T1, Factor IXa (Homo sapiens, UniProt P00740); assay: Procoagulant activity of the prepared Factor IXai; format: biochemical; settings: final product
T1 construct: made in house
T1 sequence (P00740 227-461 limits assumed): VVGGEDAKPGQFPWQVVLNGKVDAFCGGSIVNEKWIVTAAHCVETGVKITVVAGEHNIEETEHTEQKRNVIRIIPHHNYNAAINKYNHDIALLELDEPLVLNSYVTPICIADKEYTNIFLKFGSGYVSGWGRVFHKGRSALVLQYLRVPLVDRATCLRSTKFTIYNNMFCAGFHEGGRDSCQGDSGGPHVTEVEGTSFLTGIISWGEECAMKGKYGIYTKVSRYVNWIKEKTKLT
T1 sequence (P00740 47-191 partner limits assumed): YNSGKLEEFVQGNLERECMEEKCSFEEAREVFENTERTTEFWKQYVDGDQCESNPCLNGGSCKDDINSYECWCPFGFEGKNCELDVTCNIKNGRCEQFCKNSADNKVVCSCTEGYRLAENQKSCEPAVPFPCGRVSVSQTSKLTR
Protocol: Preparation of Factor IXai ^13: Factor IXai was prepared by selectively modifying the active site histidine residue on Factor IXa, using dansyl-glu-gly-arg-chloromethylketone. Proplex was applied to a preparative column containing immobilized calcium-dependent monoclonal antibody to Factor IX. The column was washed, eluted with EDTA-containing buffer, and Factor IX in the eluate (confirmed as a single band on SDS-PAGE) was then activated by applying Factor XIa (incubating in the presence of CaCl2). Purified Factor IXa was reacted with a 100-fold molar excess of dansyl-glu-gly-arg chloromethylketone, and the mixture dialyzed. […] This material (Factor IXai) was then used for experiments following filtration (0.2 μm) and chromatography on DeToxi-gel columns, to remove any trace endotoxin contamination (in sample aliquots, there was no detectable lipopolysaccharide). IXai was subsequently frozen into aliquots at −80° C. until the time of use. For those experiments in which IXai was used, it was given as a single intravenous bolus at the indicated times and at the indicated doses.

[10] = system: left circumflex coronary artery occlusion; settings: dogs; cited from earlier work
[11] = 300 μg/kg i.v. just prior to surgery, 24 hours
[12] = Table II, Experimental group mean

## rt-PA: recombinant human tissue plasminogen activator, Genentech
[1]; i.v. after reperfusion, 10 mg/kg
  increase of OD vs physiological saline solution: 1.8 fold
[1]; stroke model, rt-PA after reperfusion
  visual ICH score: increase in the visual ICH score
[2]
  hemorrhaging: some visible hemorrhaging
  stroke disorder: improvement of the stroke disorder
[3]
  rate of hemorrhagic conversion: 7-20%
[4]
  reduction of infarct size: up to 77%

## Factor IXai: Factor IXa with active site histidine modified by dansyl-glu-gly-arg-chloromethylketone; competitive inhibitor of Factor IXa
[5]; 300 μg/kg given after MCA occlusion, following removal of the occluding suture, vs vehicle
  cerebral infarction volume: significantly reduce cerebral infarction volumes
[5]; 300 μg/kg i.v. immediately prior to stroke, vs controls
  cerebral infarct volume: smaller infarct volumes; also recorded: reduce cerebral infarct volumes
[5]; [11]
  mortality: reduced mortality
  neurological deficits: less neurological deficits
[5]; [12]
  inf vol: 3.47
  occ dop 1: 0.16
  occ dop 2: 0.43
  reper dop: 0.53
[5]; Table II, Experimental group mean, at sacrifice
  sac dop: 0.75
[5]; Table II, Experimental group mean, baseline relative doppler flow
  dopp: 1.04
[5]; Table II, Experimental group mean, neurological grade
  grade: 1.67
[5]; doses 300, 600, 1200 μg/kg immediately prior to stroke
  optimal dose (infarct volume dose-response): 0.6 mg/kg
[5]; mouse, in vivo
  I/C Ratio: 1.08
[5]; mouse, in vivo, iv
  cerebral blood flow / perfusion at 24 hours: improved cerebral perfusion; also recorded: significant increase in CBF
[6]
  accumulation of radiolabelled platelets in the ipsilateral hemisphere: significant reduction
[7]
  ipsilateral accumulation of fibrin (immunoblot): no apparent increase
[1]; [11]
  apparent intracerebral hemorrhage: free of apparent intracerebral hemorrhage
[1]; highest dose tested, 1200 μg/kg
  ICH (spectrophotometric assay, corroborated by visual score): increase in ICH
[1]; mouse, in vivo
  ICH (spectrophotometric hemoglobin assay): no significant increase in ICH
[8]
  APTT: 79.9±8.9
  PT (protime): 13.4±0.7
[9]
  procoagulant activity: devoid of procoagulant activity
[10]
  activated partial thromboplastin time (APTT): did not prolong
  progressive coronary artery occlusion after electric current: effective at preventing progressive coronary artery occlusion
